The results in this text go back to patent US20070154449A1, “TIGHT JUNCTION MODULATING PEPTIDES FOR ENHANCED MUCOSAL DELIVERY OF THERAPEUTIC COMPOUNDS” (Nastech Pharmaceutical Company Inc., priority 2005, published 2007).

What all share (format): cell-based
Series [1] concerns human-derived tracheal/bronchial epithelial cells (EpiAirway™ Tissue model system). The series is described as follows: FITC-Dextran (FD3) permeation assay, EpiAirway tissue model. As to conditions: for % FD3 Permeation: 1 h at 37° C. As to the method:
A FITC labeled dextran with a molecular weight 3000 (FD3) was used to assess the efficacy of individual TJMP on epithelial cell monolayer permeation. The tissue insert plates were transferred to a 96-well receiver plate containing 200 μl of DPBS++ as basal media. The apical surface of each tissue culture insert was incubated with a 20 μl sample of a single test formulation (refer to Table 4 in Example 2 for details of test formulations) for one hour at 37° C. in the dark on a shaker (˜100 rpm). Following the 1 hour incubation period, underlying basal media samples were taken from each tissue culture insert and temporarily stored in the dark at room temperature until FD3 levels were quantified by fluorescence spectroscopy. For FD3 measurements, a 150 μl of basal media sample was transferred to a black, clear bottom 96-well plate. Fluorescence emission at 528/20 following excitation at 485/20 were measured using a FLx800 fluorescence plate reader from Biotek Instruments.
Permeation was calculated as: [formula] [formula] Formula terms for permeation defined: […]
(§1) Of the total 300 μl volume for each test formulation, only a 20 μl sample was applied to the human-derived tracheal/bronchial epithelial cells (EpiAirway™ Tissue model system) in order to assess the effect each test formulation had on TER, LDH and sample permeation.

For series [2] the test system is unchanged. The series is described as follows: Transepithelial electrical resistance (TER), EpiAirway tissue model. The conditions noted are these: pH 7, 20 μl applied. As to the method: EpiAirway™ culture membranes were received the day before the experiments started. They are shipped in phenol red-free and hydrocortisone-free Dulbecco's Modified Eagle's Medium (DMEM). The cells are ciliated and psudostratefied, grown to confluency on Millipore Multiscreen Caco-2 96-well assay system comprised of a polycarbonate filter system. Upon receipt, the insert system will be stored unopened at 4° C. and/or cultured in 250 μl basal media per well (phenol red-free and hydrocortisone-free Dulbecco's Modified Eagle's Medium (DMEM)) at 37° C./5% CO2 for 24 hours before use.
TER measurements were taken using the REMS Autosampler (World Precision Instruments, Sarasota, Fla.) with the electrode leads. The electrodes and a tissue culture blank insert will be equilibrated for at least 20 minutes in MatTek Air-100™ medium with the power off prior to checking calibration. The background resistance of the insert system has been established by multiple measurements of a blank insert plate and the same value was used for each test on the platform. Time zero TER (TER0) was measured before incubation of the inserts with the test formulation. The top electrode will be as adjusted so that it is close to, but not making contact with, the top surface of the insert membrane. Background resistance of the blank insert should be about 5-20 ohms. For each TER determination, 100 μl of MatTek Air-100™ medium was added to the insert and 250 μl in the basal well followed by placement in the Endohm chamber. All TER values are reported as a function of the surface area of the tissue. Resistance was expressed as both Ohms*cm^2 and percent original TER value.
TER values were calculated as: [formula] [formula] Formula terms for TER calculation defined: […]
A decrease in TER value relative to the control value indicates a decrease in cell membrane resistance and an increase in mucosal epithelial cell permeability.
as §1

For series [3] the test system is unchanged. The series is described as follows: Cytotoxicity (LDH assay), EpiAirway tissue model. As to conditions: 1 h incubation, % of 1% Triton X-100 control. How it is done:
The amount of cell death was assayed by measuring the release of lactate dehydrogenase (LDH) from the cells into the apical medium using a CytoTox 96 Cytotoxicity Assay Kit (Promega Corp., Madison, Wis.). One percent Octylphenolpoly (ethyleneglycolether)×(Triton X-100™) diluted in phosphate buffered saline (PBS) causes 100% lysis in cultured cells and served herein as a positive control for the LDH assay. Following the one hour incubation period with a test formulation (refer to Table 4 in Example 2 for details of test formulations), the total liquid volume of each insert was brought to a final volume of 200 μl with culture medium. The apical medium was then mixed by pipetting four times with a multichannel pipette set to a 100 μl volume. After mixing, a 100 μl sample from the apical side of each insert was transferred to a new 96-well plate. The apical media samples were sealed with a plate sealer and stored at room temperature for same day analysis or stored overnight at 4° C. for analysis the next day. To measure LDH levels, 5 μl of the 100 μl apical media sample was diluted in 45 μl DPBS in a new 96-well plate. Fresh, cell-free culture medium will be used as a blank. Fifty microliters of substrate solution was added to each well and incubated for 30 minutes at room temperature away from direct light. Following the 30 minute incubation, 50 μl of stop solution was added to each well. Optical density (OD) was measured at 490 nm with a uQuant absorbance plate reader from Biotek Instruments. The measurement of LDH release into the apical media indicates relative cytotoxicity of the samples. Percent cytotoxicity for each test formulation was calculated by subtracting the measured absorbance of the PBS control (basal level of LDH release) from the measured absorbance of the individual test formulation and then dividing that value by the measured absorbance for the 1% Triton X-100™ positive control, multiplied by 100.
The formula used to calculate percent cytotoxicity is as follows: [formula] Osmolality
as §1

CNGRCGGKKKLKLLLKLL [PN679]: the “% FD3 Permeation” value in series [1] (25 μM peptide) came out at 0%; in series [1] (100 μM peptide), 7%; in series [1] (250 μM peptide), 8%; in series [1] (500 μM peptide) it was 10%; in series [1] (1000 μM peptide) it was 10%. For the same sequence, in series [1] (based on observed TER reduction, sample permeation and cytotoxicity (LDH release)), the optimal concentration stood at 100 µM. Also, the “% T0 TER” value was 70% in series [2] (25 μM peptide); 7% in series [2] (100 μM peptide); 2% in series [2] (250 μM peptide); −2% in series [2] (500 μM peptide); −2% in series [2] (1000 μM peptide). In addition, the LDH in series [3] (25 μM peptide) was 1%; in series [3] (100 μM peptide), 23%; in series [3] (250 μM peptide), 38%; in series [3] (500 μM peptide), 50%; in series [3] (1000 μM peptide), 51%.
